For 20 molecules, IC50 results are on record in ChEMBL document CHEMBL3611978, “Synthesis and biological evaluation of novel 7-substituted 3-(4-phenoxyphenyl)thieno[3,2-c]pyridin-4-amines as potent Bruton's tyrosine kinase (BTK) inhibitors” (Bioorg Med Chem, 2015).

Structures are written as SMILES.

Chain of Vascular endothelial growth factor receptor 2 (P35968 whole entry): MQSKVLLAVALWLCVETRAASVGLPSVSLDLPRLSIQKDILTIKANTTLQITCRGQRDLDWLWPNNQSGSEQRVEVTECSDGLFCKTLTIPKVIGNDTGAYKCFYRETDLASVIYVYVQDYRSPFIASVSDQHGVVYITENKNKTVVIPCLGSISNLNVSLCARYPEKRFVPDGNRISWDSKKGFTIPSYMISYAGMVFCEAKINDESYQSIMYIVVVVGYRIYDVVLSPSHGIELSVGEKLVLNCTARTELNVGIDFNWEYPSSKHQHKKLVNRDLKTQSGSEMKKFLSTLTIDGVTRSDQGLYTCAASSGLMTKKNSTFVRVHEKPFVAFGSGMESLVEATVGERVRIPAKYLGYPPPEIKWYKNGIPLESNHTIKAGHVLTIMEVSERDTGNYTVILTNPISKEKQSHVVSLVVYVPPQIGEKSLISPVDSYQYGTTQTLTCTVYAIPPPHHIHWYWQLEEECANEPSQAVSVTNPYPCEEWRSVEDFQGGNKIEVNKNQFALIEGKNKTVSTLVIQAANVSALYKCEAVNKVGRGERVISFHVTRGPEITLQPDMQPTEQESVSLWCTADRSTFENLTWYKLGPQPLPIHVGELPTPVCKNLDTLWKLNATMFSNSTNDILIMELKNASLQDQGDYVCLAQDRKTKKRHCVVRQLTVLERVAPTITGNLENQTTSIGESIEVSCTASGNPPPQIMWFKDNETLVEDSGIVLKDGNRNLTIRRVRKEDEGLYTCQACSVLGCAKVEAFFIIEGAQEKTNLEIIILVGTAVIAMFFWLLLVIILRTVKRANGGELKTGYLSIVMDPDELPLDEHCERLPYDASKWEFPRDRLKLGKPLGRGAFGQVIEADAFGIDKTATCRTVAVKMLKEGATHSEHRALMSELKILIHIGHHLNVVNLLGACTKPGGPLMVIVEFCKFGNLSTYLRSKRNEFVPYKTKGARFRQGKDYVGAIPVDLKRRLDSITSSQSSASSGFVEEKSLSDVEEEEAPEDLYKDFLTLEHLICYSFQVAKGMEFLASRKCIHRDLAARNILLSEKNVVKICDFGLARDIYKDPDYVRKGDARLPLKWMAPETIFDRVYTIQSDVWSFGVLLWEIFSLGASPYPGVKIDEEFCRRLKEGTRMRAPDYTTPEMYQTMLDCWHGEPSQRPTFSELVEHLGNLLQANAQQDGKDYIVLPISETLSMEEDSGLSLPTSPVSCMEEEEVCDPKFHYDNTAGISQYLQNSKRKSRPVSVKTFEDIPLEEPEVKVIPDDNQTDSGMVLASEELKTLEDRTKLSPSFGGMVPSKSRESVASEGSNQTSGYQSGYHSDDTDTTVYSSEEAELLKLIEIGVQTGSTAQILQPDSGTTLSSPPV

The target in one assay is Tyrosine-protein kinase BTK (Homo sapiens, UniProt Q06187). Nature of the assay: Inhibition of BTK (unknown origin) after 1 hr by TR-FRET assay. A general note: TR-FRET usually uses a lanthanide donor and a delayed reading to cut background.
Chain of Tyrosine-protein kinase BTK (Q06187 whole entry): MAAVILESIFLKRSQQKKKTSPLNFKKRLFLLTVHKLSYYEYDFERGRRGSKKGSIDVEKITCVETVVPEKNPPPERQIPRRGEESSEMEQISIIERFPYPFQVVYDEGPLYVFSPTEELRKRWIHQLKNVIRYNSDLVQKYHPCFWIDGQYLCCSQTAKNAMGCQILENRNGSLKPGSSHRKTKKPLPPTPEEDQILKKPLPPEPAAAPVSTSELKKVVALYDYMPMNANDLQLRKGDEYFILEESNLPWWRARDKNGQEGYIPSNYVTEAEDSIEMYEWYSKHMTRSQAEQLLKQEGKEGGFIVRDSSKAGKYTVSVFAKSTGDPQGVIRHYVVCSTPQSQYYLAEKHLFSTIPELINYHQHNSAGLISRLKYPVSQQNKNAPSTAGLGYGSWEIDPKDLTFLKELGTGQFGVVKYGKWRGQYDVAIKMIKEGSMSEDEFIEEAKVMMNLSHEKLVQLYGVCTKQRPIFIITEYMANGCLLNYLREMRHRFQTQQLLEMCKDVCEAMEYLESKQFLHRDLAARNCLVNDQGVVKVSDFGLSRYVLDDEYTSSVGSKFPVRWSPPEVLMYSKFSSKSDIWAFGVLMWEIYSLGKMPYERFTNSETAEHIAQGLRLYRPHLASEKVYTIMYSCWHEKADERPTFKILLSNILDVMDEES
Molecule `CC(C)(C)OC(=O)N1CC=C(c2cnc(N)c3c(-c4ccc(Oc5ccccc5)cc4)csc23)CC1` gave an IC50 of 1660 nM.
The molecule `Nc1ncc(-c2cnn(CC(=O)N3CCCCC3)c2)c2scc(-c3ccc(Oc4ccccc4)cc3)c12` registered an IC50 of 12.2 nM.
On the same count and under the same terms, for `Nc1ncc(-c2cnn(CC(=O)N3CCOCC3)c2)c2scc(-c3ccc(Oc4ccccc4)cc3)c12` the value was 11.8 nM.
The same measure, in the same setting: for `Nc1ncc(-c2cnn(C3CCCNC3=O)c2)c2scc(-c3ccc(Oc4ccccc4)cc3)c12` (centres undefined) the value was 9.5 nM.
Molecule `CC(=O)Cn1cc(-c2cnc(N)c3c(-c4ccc(Oc5ccccc5)cc4)csc23)cn1` showed an IC50 of 7.8 nM.
Same read-out and setting: for `C#CCn1cc(-c2cnc(N)c3c(-c4ccc(Oc5ccccc5)cc4)csc23)cn1` the value was 7.4 nM; for `CNC(=O)CCn1cc(-c2cnc(N)c3c(-c4ccc(Oc5ccccc5)cc4)csc23)cn1`, 25.5 nM; for `CS(=O)(=O)OC1CCCN(C(=O)CCn2cc(-c3cnc(N)c4c(-c5ccc(Oc6ccccc6)cc5)csc34)cn2)C1` (centres undefined), 54.9 nM.
Still for that read-out and setting: the same measure for `Nc1ncc(-c2cnn(CCC(=O)O)c2)c2scc(-c3ccc(Oc4ccccc4)cc3)c12`: 21 nM; for `C=CC(=O)NCCn1cc(-c2cnc(N)c3c(-c4ccc(Oc5ccccc5)cc4)csc23)cn1`: 9.9 nM.
Still for that read-out and setting: for `C=CC(=O)n1cc(-c2cnc(N)c3c(-c4ccc(Oc5ccccc5)cc4)csc23)cn1` the value was 1690 nM; for `CC(C)(C)OC(=O)N1C=C(c2cnc(N)c3c(-c4ccc(Oc5ccccc5)cc4)csc23)CCC1`, 2870 nM.
`Nc1ncc(C2=CNCCC2)c2scc(-c3ccc(Oc4ccccc4)cc3)c12` registered an IC50 of 3600 nM.
The molecule `CNC(=O)CN1C=C(c2cnc(N)c3c(-c4ccc(Oc5ccccc5)cc4)csc23)CCC1` gave an IC50 of 456 nM.
In the case of `C=CC(=O)N1C=C(c2cnc(N)c3c(-c4ccc(Oc5ccccc5)cc4)csc23)CCC1`, the IC50 came out at 343 nM.
Same read-out and setting: for `Nc1ncc(C2CCCNC2)c2scc(-c3ccc(Oc4ccccc4)cc3)c12` (centres undefined) the value was over 10000 nM; for `C=CC(=O)N1CCCC(c2cnc(N)c3c(-c4ccc(Oc5ccccc5)cc4)csc23)C1` (centres undefined), 2300 nM.
`Nc1ncc(C2=CCNCC2)c2scc(-c3ccc(Oc4ccccc4)cc3)c12`: the IC50 was 854 nM.
Same read-out and setting: for `C=CC(=O)N1CC=C(c2cnc(N)c3c(-c4ccc(Oc5ccccc5)cc4)csc23)CC1` the value was 183 nM.
The molecule `Nc1ncc(C2CCNCC2)c2scc(-c3ccc(Oc4ccccc4)cc3)c12` gave an IC50 of over 10000 nM.

The target of a further assay is Hepatocyte growth factor receptor (Homo sapiens, UniProt P08581). Nature of the assay: Inhibition of c-MET (unknown origin) after 1 hr by ELISA based assay. For orientation: ELISA stands for enzyme-linked immunosorbent assay.
Chain of Hepatocyte growth factor receptor (P08581 whole entry): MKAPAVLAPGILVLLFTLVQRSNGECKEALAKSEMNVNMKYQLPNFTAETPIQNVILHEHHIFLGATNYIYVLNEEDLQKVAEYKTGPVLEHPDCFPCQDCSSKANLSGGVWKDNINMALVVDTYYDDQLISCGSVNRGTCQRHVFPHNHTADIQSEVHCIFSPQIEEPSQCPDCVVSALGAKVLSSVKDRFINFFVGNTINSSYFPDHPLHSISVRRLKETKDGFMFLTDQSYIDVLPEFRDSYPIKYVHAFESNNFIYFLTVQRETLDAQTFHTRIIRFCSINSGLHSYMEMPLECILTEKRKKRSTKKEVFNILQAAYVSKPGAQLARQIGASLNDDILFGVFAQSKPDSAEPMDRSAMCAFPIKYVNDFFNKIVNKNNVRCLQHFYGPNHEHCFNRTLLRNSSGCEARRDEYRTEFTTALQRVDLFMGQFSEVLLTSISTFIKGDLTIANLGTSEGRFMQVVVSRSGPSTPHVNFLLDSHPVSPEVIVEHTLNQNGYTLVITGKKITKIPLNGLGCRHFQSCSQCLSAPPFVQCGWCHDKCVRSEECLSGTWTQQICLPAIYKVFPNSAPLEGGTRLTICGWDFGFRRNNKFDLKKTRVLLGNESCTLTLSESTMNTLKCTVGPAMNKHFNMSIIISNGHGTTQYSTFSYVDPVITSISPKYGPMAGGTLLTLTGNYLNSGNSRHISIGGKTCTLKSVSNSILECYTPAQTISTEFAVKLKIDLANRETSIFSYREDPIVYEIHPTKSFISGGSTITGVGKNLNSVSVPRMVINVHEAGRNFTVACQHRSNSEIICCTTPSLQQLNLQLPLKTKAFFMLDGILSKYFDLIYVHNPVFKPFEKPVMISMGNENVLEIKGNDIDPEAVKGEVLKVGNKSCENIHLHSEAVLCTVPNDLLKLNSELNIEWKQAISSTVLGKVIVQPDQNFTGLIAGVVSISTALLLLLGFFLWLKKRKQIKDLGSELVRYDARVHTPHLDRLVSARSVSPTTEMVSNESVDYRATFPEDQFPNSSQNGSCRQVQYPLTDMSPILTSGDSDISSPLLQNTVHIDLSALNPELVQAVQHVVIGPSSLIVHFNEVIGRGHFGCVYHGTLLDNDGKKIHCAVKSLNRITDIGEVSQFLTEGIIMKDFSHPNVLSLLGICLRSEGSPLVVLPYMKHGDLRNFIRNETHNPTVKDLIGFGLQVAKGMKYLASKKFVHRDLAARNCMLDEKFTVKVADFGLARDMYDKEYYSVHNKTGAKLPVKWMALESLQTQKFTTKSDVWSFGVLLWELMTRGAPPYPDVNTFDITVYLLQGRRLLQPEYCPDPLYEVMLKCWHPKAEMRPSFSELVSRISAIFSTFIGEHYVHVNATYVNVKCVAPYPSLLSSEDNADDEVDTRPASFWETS
In the case of `Nc1ncc(-c2cnn(CC(=O)N3CCOCC3)c2)c2scc(-c3ccc(Oc4ccccc4)cc3)c12`, the IC50 turned out to be 2430 nM.

A further assay concerns the target Vascular endothelial growth factor receptor 2 (Homo sapiens, UniProt P35968). Description: Inhibition of KDR (unknown origin) after 1 hr by ELISA based assay.
Regarding `Nc1ncc(-c2cnn(CC(=O)N3CCOCC3)c2)c2scc(-c3ccc(Oc4ccccc4)cc3)c12`, the IC50 is 191 nM.

The target in the next assay is Tyrosine-protein kinase JAK2 (Homo sapiens, UniProt O60674). Description: Inhibition of JAK2 (unknown origin) after 1 hr by ELISA based assay.
Chain of Tyrosine-protein kinase JAK2 (O60674 whole entry): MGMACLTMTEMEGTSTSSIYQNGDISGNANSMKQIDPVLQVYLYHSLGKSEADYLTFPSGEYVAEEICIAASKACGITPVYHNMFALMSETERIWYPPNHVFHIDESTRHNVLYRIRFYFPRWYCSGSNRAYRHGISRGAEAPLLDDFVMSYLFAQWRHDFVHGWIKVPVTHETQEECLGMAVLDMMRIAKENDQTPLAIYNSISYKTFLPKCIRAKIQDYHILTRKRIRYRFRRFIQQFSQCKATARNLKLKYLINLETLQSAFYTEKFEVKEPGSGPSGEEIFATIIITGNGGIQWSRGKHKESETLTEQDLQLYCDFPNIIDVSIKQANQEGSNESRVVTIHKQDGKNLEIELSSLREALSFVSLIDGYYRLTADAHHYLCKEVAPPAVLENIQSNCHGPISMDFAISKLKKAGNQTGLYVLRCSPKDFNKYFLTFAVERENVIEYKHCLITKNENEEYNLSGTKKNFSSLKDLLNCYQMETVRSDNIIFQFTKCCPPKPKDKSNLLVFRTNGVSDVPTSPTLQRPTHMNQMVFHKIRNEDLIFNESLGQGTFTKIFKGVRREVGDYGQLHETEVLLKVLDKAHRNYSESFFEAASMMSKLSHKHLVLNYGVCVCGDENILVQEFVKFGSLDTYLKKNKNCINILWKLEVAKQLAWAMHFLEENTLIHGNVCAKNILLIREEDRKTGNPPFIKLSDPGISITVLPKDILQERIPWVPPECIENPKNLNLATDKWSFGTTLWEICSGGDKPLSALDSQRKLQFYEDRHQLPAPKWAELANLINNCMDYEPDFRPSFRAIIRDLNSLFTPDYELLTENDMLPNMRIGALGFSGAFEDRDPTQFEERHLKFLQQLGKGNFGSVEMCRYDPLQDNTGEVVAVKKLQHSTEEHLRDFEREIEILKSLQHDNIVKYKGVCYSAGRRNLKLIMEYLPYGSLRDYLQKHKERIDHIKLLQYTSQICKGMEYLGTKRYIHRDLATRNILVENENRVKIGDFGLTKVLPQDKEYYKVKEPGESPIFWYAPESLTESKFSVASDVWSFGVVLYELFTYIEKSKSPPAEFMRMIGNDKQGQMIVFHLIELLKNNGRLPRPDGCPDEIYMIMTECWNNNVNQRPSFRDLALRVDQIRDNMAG
Turning to `Nc1ncc(-c2cnn(CC(=O)N3CCOCC3)c2)c2scc(-c3ccc(Oc4ccccc4)cc3)c12`, the IC50 turned out to be 6860 nM.

Another assay has as its target T1, Tyrosine-protein kinase JAK3 (Homo sapiens, UniProt P52333).
T1 sequence (P52333 whole entry): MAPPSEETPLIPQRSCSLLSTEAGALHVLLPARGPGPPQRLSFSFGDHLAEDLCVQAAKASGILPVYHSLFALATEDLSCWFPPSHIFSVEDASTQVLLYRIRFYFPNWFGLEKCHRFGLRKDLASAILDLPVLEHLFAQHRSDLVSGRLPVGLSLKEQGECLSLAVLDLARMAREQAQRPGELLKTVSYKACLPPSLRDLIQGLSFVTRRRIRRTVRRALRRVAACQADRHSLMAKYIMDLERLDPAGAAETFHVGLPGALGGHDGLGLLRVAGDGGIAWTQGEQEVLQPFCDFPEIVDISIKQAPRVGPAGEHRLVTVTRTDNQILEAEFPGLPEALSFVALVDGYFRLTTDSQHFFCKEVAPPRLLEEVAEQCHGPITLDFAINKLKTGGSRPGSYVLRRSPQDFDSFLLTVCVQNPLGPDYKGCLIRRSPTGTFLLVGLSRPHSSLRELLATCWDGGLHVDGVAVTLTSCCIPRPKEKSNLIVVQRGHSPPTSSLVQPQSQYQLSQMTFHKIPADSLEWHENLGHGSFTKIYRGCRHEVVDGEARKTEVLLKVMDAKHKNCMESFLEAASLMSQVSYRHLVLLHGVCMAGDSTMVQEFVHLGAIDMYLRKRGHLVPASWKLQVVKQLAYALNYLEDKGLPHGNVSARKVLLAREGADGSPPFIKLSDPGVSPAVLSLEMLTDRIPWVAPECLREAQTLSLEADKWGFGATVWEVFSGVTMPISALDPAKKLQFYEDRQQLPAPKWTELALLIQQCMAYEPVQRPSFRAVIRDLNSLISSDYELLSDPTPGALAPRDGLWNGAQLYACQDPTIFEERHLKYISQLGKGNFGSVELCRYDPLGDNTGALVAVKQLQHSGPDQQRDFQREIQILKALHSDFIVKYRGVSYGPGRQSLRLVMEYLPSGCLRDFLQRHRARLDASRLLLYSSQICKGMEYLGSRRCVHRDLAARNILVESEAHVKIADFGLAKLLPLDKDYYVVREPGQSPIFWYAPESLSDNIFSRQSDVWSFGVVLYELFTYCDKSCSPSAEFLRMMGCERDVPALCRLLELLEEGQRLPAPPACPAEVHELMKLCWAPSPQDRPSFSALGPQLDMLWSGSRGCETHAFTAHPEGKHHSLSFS
Nature of the assay: Inhibition of JAK3 (unknown origin) after 1 hr by ELISA based assay.
Molecule `Nc1ncc(-c2cnn(CC(=O)N3CCOCC3)c2)c2scc(-c3ccc(Oc4ccccc4)cc3)c12` had an IC50 of 3070 nM.

For orientation: IC50 means the concentration needed to halve the response being measured. Read a low IC50 as higher potency.
